Measured values from PMC7269481, “ZN148 Is a Modular Synthetic Metallo-β-Lactamase Inhibitor That Reverses Carbapenem Resistance in Gram-Negative Pathogens In Vivo” (Antimicrobial Agents and Chemotherapy, 2020).

Legend:
HepG2 cells = experiment: In vitro toxicity, alamarBlue viability; format: cell-based, human; conditions: Homo sapiens, HepG2, 24 h
Procedure: The human hepatoblastoma HepG2 cell line (HB-8065; ATCC, Manassas, VA) was cultured in DMEM-GlutaMAX (5.5 mM glucose; Thermo Fisher) supplemented with 10% fetal bovine serum (Sigma-Aldrich), streptomycin (100 μg/ml; Gibco/Thermo Fisher), and penicillin (100 U/ml; Gibco/Thermo Fisher) at 37°C in 5% CO2. For viability assays, cells were seeded in white 96-well Nunclon plates (Sigma-Aldrich) at a density of 20,000 cells/well and left overnight to adhere. ZN148 and TPA (Sigma-Aldrich, Darmstadt, Germany) dissolved in dimethyl sulfoxide (DMSO; (Sigma-Aldrich) were added to the white 96-well plates containing 20,000 HepG2 cells/well at concentrations ranging from 1 to 1 × 10^−3 mM (a DMSO concentration kept below 1%), followed by incubation for 24 h at 37°C in 5% CO2. After 24 h, alamarBlue cell viability reagent (Thermo Fisher, Carlsbad, CA) was added (10% final concentration), followed by incubation for 4 h at 37°C. The proportion of viable cells in each well was measured in a fluorescence plate reader (Clariostar; BMGlabtech, Germany) at excitation 550 nm/emission 603 nm ([56]). Data from eight replicates were fitted by nonlinear regression to determine IC50 values using Prism (GraphPad Software, Inc.).

VIM-2 = target: T1, VIM-2 (Escherichia coli, UniProt Q5U7L7); experiment: Time-dependent inactivation kinetics of purified VIM-2 (nitrocefin); format: biochemical
T1 construct: made in house
Procedure: Protein expression and purification of NDM-1 and VIM-2 were performed as previously described ([36], [43], [57]). Stock solutions of purified NDM-1 and VIM-2 were prepared in 50 mM HEPES buffer (pH 7.5; Merck). Inhibition of NDM-1 and VIM-2 were determined for ZN148 and the analogues ZN222, ZN223, and ZN228 at different concentrations of inhibitor after preincubation times of 2, 8, 15, 25, and 32 min in 50 mM HEPES buffer (pH 7.5) supplemented with 1 μM ZnSO4 (Sigma-Aldrich) and bovine serum albumin (Sigma-Aldrich; final concentration, 2 μg/ml) at 25°C. Concentrations of 1 nM VIM-2 and 30 nM NDM-1 were used, and the reaction was initiated by the addition of 30 μM nitrocefin (Merck) for VIM-2 or 100 μM imipenem (Sigma-Aldrich) for NDM-1. The reaction was measured at 482 nm (VIM-2) or […] (NDM-1) in either standard 96-well plates (Thermo Fisher Scientific) for VIM-2 or UV-transparent 96-well plates (Corning, Kennebunk, ME) for NDM-1 at 25°C in a SpectraMax Plus plate reader (Molecular Devices). All of the enzyme and substrate concentrations indicated are the final concentrations in the assay. The enzyme activity as a percentage was calculated based on the initial velocity and compared to the control without inhibitor compound. All tests were performed at least in duplicates.
The observed rate constant (kobs) per inhibitor concentration was calculated from the slope of a semilog plot of the enzyme activity in percent versus preincubation time.
By fitting these values, the irreversible kinetic parameters maximum inactivation rate (kinact) and the inhibitor concentration that produces half-maximal rate of inactivation (KI) were obtained. Finally, the inhibitors were characterized by calculating kinact/KI. Where no saturation curve could be observed, KI and kinact were determined from the linear part of plot 1/kobs versus 1/[I].

NDM-1 = target: T2, NDM-1 (Klebsiella pneumoniae, UniProt C7C422); experiment: Zinc content determination by ICP-MS, NDM-1; format: biochemical; conditions: ICP-MS after preincubation
T2 construct: made in house
T2 sequence (C7C422 29-270, looked up): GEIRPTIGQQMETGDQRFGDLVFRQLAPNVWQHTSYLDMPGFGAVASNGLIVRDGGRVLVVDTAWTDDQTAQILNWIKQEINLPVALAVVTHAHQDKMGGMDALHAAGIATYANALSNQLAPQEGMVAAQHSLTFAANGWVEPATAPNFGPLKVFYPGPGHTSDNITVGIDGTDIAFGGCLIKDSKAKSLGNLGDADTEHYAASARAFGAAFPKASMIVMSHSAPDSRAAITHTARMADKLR

## CN(C[C@H](O)[C@@H](O)[C@H](O)[C@H](O)CO)C(=O)c1ccc(CN(Cc2ccccn2)Cc2ccccn2)nc1 [ZN148]
HepG2 cells
  IC50: > 100 µM
VIM-2
  kinact: 0.00262 s⁻¹
  kinact/KI: 110 M⁻¹ s⁻¹
NDM-1
  zinc removed from enzyme: ~1.3 molar equivalents
